# Test results from patent US20240034736A1, “HSD17B13 INHIBITORS AND USES THEREOF” (FL2022-001, Inc., priority 2020, published 2024).
# Biological target: Recombinant human HSD17B13 enzyme (Homo sapiens (Human), UniProt Q7Z5P4)
# Test: HSD17b13 NAD(P)H-Glo Biochemical Assay
# Conditions: for IC50: 50 uM estradiol, 1 mM NAD+, read-out: HSD17β13 IC50; for inhibition at 30 µM: read-out: HSD17β13 inhibition at 30 uM
# In short: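 Recombinant human HSD17B13 was pre-incubated with inhibitor for 20 min at RT in 20 mM Tris pH 7.4 with 0.002% Tween-20 and 0.02% BSA. Reaction then ran with 50 uM estradiol and 1 mM NAD+ (final) for 3 h at 37° C. NADH formed was detected by NAD(P)H-Glo luminescence after 1 h at RT.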
# Sequence of Recombinant human HSD17B13 enzyme (Q7Z5P4 20-300): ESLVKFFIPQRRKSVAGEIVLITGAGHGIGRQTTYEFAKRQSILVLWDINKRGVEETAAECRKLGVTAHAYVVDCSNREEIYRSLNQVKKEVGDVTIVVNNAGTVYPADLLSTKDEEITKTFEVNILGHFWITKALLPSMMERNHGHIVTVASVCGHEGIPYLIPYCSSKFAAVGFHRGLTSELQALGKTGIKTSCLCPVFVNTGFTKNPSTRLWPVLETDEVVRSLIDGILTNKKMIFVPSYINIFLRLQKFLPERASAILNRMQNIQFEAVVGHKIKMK
IC50 [nM],Compound,other results
100 to 1000,"CS(=O)(=O)N1CCN(c2ccc3c(cnn3-c3cc(O)c(F)c(C(F)(F)F)c3)c2)C2(CC2)C1 [Compound 21.45, 2-Fluoro-5-(5-(7-(methyl-sulfonyl)-4,7-diazaspiro[2.5]-octan-4-yl)-1H-indazol-1-yl)-3-(trifluoromethyl)phenol]",
100 to 1000,"CS(=O)(=O)N1CCN(c2ccc3c(cnn3-c3cc(O)c(F)c(C(F)(F)F)c3)c2)C2(CCC2)C1 [Compound 21.46, 2-Fluoro-5-(5-(8-(methyl-sulfonyl)-5,8-diazaspiro[3.5]-nonan-5-yl)-1H-indazol-1-yl)-3-(trifluoromethyl)phenol]",
100 to 1000,"CC1CN(S(C)(=O)=O)CCN1c1ccc2c(cnn2-c2cc(O)c(F)c(C(F)(F)F)c2)c1 (stereo not drawn) [Compound 21.47, 2-Fluoro-5-(5-(2-methyl-4-(methylsulfonyl)piperazin-1-yl)-1H-indazol-1-yl)-3-(trifluoromethyl)phenol]",
1000 to 30000,"CC1(C)CN(S(C)(=O)=O)CCN1c1ccc2c(cnn2-c2cc(O)c(F)c(C(F)(F)F)c2)c1 [Compound 21.48, 5-(5-(2,2-Dimethyl-4-(methyl-sulfonyl)piperazin-1-yl)-1H-indazol-1-yl)-2-fluoro-3-(trifluoromethyl)phenol]",
100 to 1000,"CS(=O)(=O)N1CCN(c2cc3cnn(-c4cc(O)c(F)c(F)c4)c3cc2C2CC2)CC1 [Compound 21.49, 5-(6-Cyclopropyl-5-(4-(meth-ylsulfonyl)piperazin-1-yl)-1H-indazol-1-yl)-2,3-difluoro-phenol]",
100 to 1000,"Cc1nn(-c2cc(O)c(F)c(C(F)(F)F)c2)c2cnc(N3CCN(S(C)(=O)=O)CC3)cc12 [Compound 21.50, 2-Fluoro-5-(3-methyl-5-(4-(methylsulfonyl)piperazin-1-yl)-1H-pyrazolo[3,4-c]-pyridine-1-yl)-3-(trifluoro-methyl)phenol]",
100 to 1000,"CS(=O)(=O)N1CCN(c2cc3c(C4CC4)nn(-c4cc(O)c(F)c(C(F)(F)F)c4)c3cn2)CC1 [Compound 21.51, 5-(3-Cyclopropyl-5-(4-(meth-ylsulfonyl)piperazin-1-yl)-1H-pyrazolo[3,4-c]pyridine-1-yl)-2-fluoro-3-(trifluoromethyl)-phenol]",
100 to 1000,"CS(=O)(=O)N1CCN(c2ncc3c(cnn3-c3cc(O)c(F)c(C(F)(F)F)c3)n2)CC1 [Compound 21.52, 2-Fluoro-5-(5-(4-(methyl-sulfonyl)piperazin-1-yl)-1H-pyrazolo[4,3-d]pyrimidin-1-yl)-3-(trifluoromethyl)phenol]",
< 100,"CS(=O)(=O)N1CCN(c2cc3c(F)nn(-c4cc(O)c(F)c(C(F)(F)F)c4)c3cn2)CC1 [Compound 21.53, 2-Fluoro-5-(3-fluoro-5-(4-(methylsulfonyl)piperazin-1-yl)-1H-pyrazolo[3,4-c]pyridin-1-yl)-3-(trifluoromethyl)phenol]",
100 to 1000,"Oc1cc(-n2ncc3cc(N4CCOCC45CC5)ncc32)cc(C(F)(F)F)c1F [Compound 21.54, 5-(5-(7-Oxa-4-azaspiro[2.5]-octan-4-yl)-1H-pyrazolo[3,4-c]pyridin-1-yl)-2-fluoro-3-(trifluoromethyl)phenol]",
100 to 1000,"C[C@@H]1COCCN1c1cc2cnn(-c3cc(O)c(F)c(C(F)(F)F)c3)c2cn1 [Compound 21.55, (R)-2-Fluoro-5-(5-(3-methyl-morpholino)-1H-pyrazolo[3,4-c]pyridin-1-yl)-3-(trifluoro-methyl)phenol]",
100 to 1000,"C[C@H]1COCCN1c1cc2cnn(-c3cc(O)c(F)c(C(F)(F)F)c3)c2cn1 [Compound 21.56, (S)-2-Fluoro-5-(5-(3-methyl-morpholino)-1H-pyrazolo[3,4-c]pyridin-1-yl)-3-(trifluoro-methyl)phenol]",
100 to 1000,"Oc1cc(-n2ncc3cc(N4CCOCC4)ncc32)cc(C(F)(F)F)c1F [Compound 21.57, 2-Fluoro-5-(5-morpholino-1H-pyrazolo[3,4-c]pyridin-1-yl)-3-(trifluoromethyl)phenol]",
100 to 1000,"CN(c1ccc2c(c1)c(F)nn2-c1cc(C(F)(F)F)c(F)c(O)c1F)C1CCOCC1 [Compound 21.58, 2,6-Difluoro-3-(3-fluoro-5-(methyl(tetrahydro-2H-pyran-4-yl)amino)-1H-indazol-1-yl)-5-(trifluoromethyl)phenol]",
100 to 1000,"Oc1c(F)c(-n2nnc3cc(N4CCOCC45CC5)ncc32)cc(C(F)(F)F)c1F [Compound 21.59, 3-(6-(7-Oxa-4-azaspiro[2.5]-octan-4-yl)-3H-[1,2,3]triazolo-[4,5-c]pyridin-3-yl)-2,6-difluoro-5-(trifluoromethyl)-phenol]",
1000 to 30000,"Oc1c(F)c(-n2cnc3cc(N4CCOCC45CC5)ncc32)cc(C(F)(F)F)c1F [Compound 21.60, 3-(6-(7-Oxa-4-azaspiro[2.5]-octan-4-yl)-3H-imidazo[4,5-c]pyridin-3-yl)-2,6-difluoro-5-(trifluoromethyl)phenol]",
,"CS(=O)(=O)N1CCN(c2ccc3c(c2)cc(C(=O)O)n3-c2ccc(F)c(O)c2)CC1 [Compound 21.61, 1-(4-Fluoro-3-hydroxyphenyl)-5-(4-(methylsulfonyl)piperazin-1-yl)-1H-indole-2-carboxylic acid]",inhibition at 30 µM: < 20%
,"COC(=O)c1cc2cc(N3CCN(S(C)(=O)=O)CC3)ccc2n1-c1ccc(F)c(O)c1 [Compound 21.62, Methyl 1-(4-fluoro-3-hydroxy-phenyl)-5-(4-(methylsulfonyl)-piperazin-1-yl)-1H-indole-2-carboxylate]",inhibition at 30 µM: < 20%

IC50 [nM],Compound,other results
,"Cc1nc2cc(N3CCOCC34CC4)ncc2n1-c1cc(C(F)(F)F)c(F)c(O)c1F [Compound 21.63, 2,6-Difluoro-3-(2-methyl-6-(7-oxa-4-azaspiro[2.5]octan-4-yl)-3H-imidazo[4,5-c]pyridin-3-yl)-5-(trifluoromethyl)phenol]",inhibition at 10 µM (read-out: HSD17β13 inhibition at 10 uM): < 20%
100 to 1000,"COc1ccc(Nc2ccc3c(cnn3-c3ccc(F)c(O)c3)c2)cc1Cl [Compound 22, 5-(5-((3-Chloro-4-methoxyphenyl)amino)-1H-indazol-1-yl)-2-fluorophenol]",
100 to 1000,"Oc1cc(-n2ncc3cc(Nc4ccc(O)c(Cl)c4)ccc32)ccc1F [Compound 23, 2-Chloro-4-((1-(4-fluoro-3-hydroxyphenyl)-1H-indazol-5-yl)amino)phenol]",
1000 to 30000,"CC(=O)N1CCC(Oc2ccc3c(cnn3-c3cc(O)c(F)c(F)c3)c2)CC1 [Compound 24, 1-(4-((1-(3,4-Difluoro-5-hydroxyphenyl)-1H-indazol-5-yl)oxy)piperidin-1-yl)ethan-1-one]",
100 to 1000,"CC(=O)N1CC(Oc2ccc3c(cnn3-c3cc(O)c(F)c(F)c3)c2)C1 [Compound 24.01, 1-(3-((1-(3,4-Difluoro-5-hydroxyphenyl)-1H-indazol-5-yl)oxy)azetidin-1-yl)ethan-1-one]",
100 to 1000,"CS(=O)(=O)N1CC(Oc2ccc3c(cnn3-c3cc(O)c(F)c(F)c3)c2)C1 [Compound 25, 2,3-Difluoro-5-(5-((1-(methylsulfonyl)azetidin-3-yl)oxy)-1H-indazol-1-yl)phenol]",
1000 to 30000,"CS(=O)(=O)N1CCC(Oc2ccc3c(cnn3-c3cc(O)c(F)c(F)c3)c2)CC1 [Compound 25.01, 2,3-Difluoro-5-(5-((1-(methyl-sulfonyl)piperidin-4-yl)oxy)-1H-indazol-1-yl)phenol]",
1000 to 30000,"CC(=O)N1CCC(c2ccc3c(cnn3-c3ccc(F)c(O)c3)c2)CC1 [Compound 26, 1-(4-(1-(4-Fluoro-3-hydroxyphenyl)-1H-indazol-5-yl)piperidin-1-yl)ethan-1-one]",
1000 to 30000,"CS(=O)(=O)N1CCC(c2ccc3c(cnn3-c3ccc(F)c(O)c3)c2)CC1 [Compound 26.01, 2-Fluoro-5-(5-(1-(methyl-sulfonyl)piperidin-4-yl)-1H-indazol-1-yl)phenol]",
100 to 1000,"CNC(=O)N1CCC(c2ccc3c(cnn3-c3ccc(F)c(O)c3)c2)CC1 [Compound 26.02, 4-(1-(4-Fluoro-3-hydroxy-phenyl)-1H-indazol-5-yl)-N-methylpiperidine-1-carboxamide]",
< 100,"CS(=O)(=O)N1CCC(c2ccc3c(cnn3-c3cc(O)c(F)c(F)c3)c2)CC1 [Compound 27, 2,3-Difluoro-5-(5-(1-(methylsulfonyl)piperidin-4-yl)-1H-indazol-1-yl)phenol]",
1000 to 30000,"CS(=O)(=O)N1CCC(c2cc3cnn(-c4cc(O)c(F)c(F)c4)c3cc2Cl)CC1 [Compound 27.01, 5-(6-Chloro-5-(1-(methyl-sulfonyl)piperidin-4-yl)-1H-indazol-1-yl)-2,3-difluoro-phenol]",
,"CS(=O)(=O)N1CCC(C(=O)O)(c2ccc3c(cnn3-c3cc(O)c(F)c(F)c3)c2)CC1 [Compound 28, 4-(1-(3,4-Difluoro-5-hydroxyphenyl)-1H-indazol-5-yl)-1-(methylsulfonyl)piperidine-4-carboxylic Acid]",inhibition at 30 µM: 49%
1000 to 30000,CS(=O)(=O)N1CCC(CO)(c2ccc3c(cnn3-c3cc(O)c(F)c(F)c3)c2)CC1 [Compound 28.01],
100 to 1000,"COCC1(c2ccc3c(cnn3-c3cc(O)c(F)c(F)c3)c2)CCN(S(C)(=O)=O)CC1 [Compound 28.02, 2,3-Difluoro-5-(5-(4-(meth-oxymethyl)-1-(methylsul-fonyl)piperidin-4-yl)-1H-indazol-1-yl)phenol]",
1000 to 30000,"CC1(c2ccc3c(cnn3-c3cc(O)c(F)c(F)c3)c2)CCN(S(C)(=O)=O)CC1 [Compound 28.03, 2,3-Difluoro-5-(5-(4-methyl-1-(methylsulfonyl)piperidin-4-yl)-1H-indazol-1-yl)phenol]",
1000 to 30000,"CS(=O)(=O)N1CCC(C#N)(c2ccc3c(cnn3-c3cc(O)c(F)c(F)c3)c2)CC1 [Compound 28.04, 4-(1-(3,4-Difluoro-5-hydroxy-phenyl)-1H-indazol-5-yl)-1-(methylsulfonyl)piperidine-4-carbonitrile]",
1000 to 30000,"Cc1cc(O)c(F)c(-n2ncc3cc(N4CCN(S(C)(=O)=O)CC4)ccc32)c1 [Compound 28.05, 2-Fluoro-5-methyl-3-(5-(4-(methylsulfonyl)piperazin-1-yl)-1H-indazol-1-yl)phenol]",
